Results published in PMC4226669, “Anti-cancer potency of tasquinimod is enhanced via albumin-binding facilitating increased uptake in the tumor microenvironment” (Oncotarget, 2014).
Entries after “also recorded” stand apart in the source; their conditions may differ. Like-named read-outs stand apart in the source and are kept apart here.

Tests used:
HUVEC cells = assay: In vitro cell metabolism in HUVEC; assay type: in vitro ADME, human; conditions: HUVEC exposed to 1 μM 14C-labeled tasquinimod, 48 hours
Experimental: The nuclear uptake results are consistent with tasquinimod being the active drug for both direct therapeutic effects on cancer cells and indirect effects via suppression of the angiogenic response of host endothelial cells. To confirm these conclusions, the concentration of tasquinimod metabolites produced by endothelial cells was compared to the potency of these metabolites for inhibiting angiogenesis. When HUVEC cells are exposed to 1 μM of ^14C-labeled tasquinimod for 48 hours, < 15% of the drug is metabolized with 10% (i.e., 100 nM) being converted to the quinoline-O-demethylated compound and < 2% (i.e., < 20 nM) being converted to the quinoline-N-demethylated or carboxamide-N-demethylated compounds.
For in vitro studies, cells were incubated with 1μM ^14C-labeled tasquinimod for indicated time period and then the media and cells or cell nuclei separately harvested, deproteinated with acetonitrile, and metabolites separated by HPLC and quantitated as described above.

[1] = Tissue distribution and metabolites in nude mice bearing CWR-22Rv1 cancers; assay type: in vivo, mouse; conditions: 4 hours post oral 5mg/kg tasquinimod; for concentration at 4 h: male, nude, mouse
Experimental: To determine the concentration of metabolites, nude mice bearing CWR-22Rv1 prostate cancers were orally administered with 5 mg/kg of ^14C- radiolabeled tasquinimod and 4 and 24 hours later, blood plasma and liver, kidney, and cancer tissue harvested and analyzed for determination of metabolites. […] The predominant metabolite is the O-demethylated quinoline compound, Figure 2A&B, but the concentration of the hydroxylated aromatic quinoline and the N-demethylated quinoline compounds, along with the O-demethylated quinoline compound are also higher in the liver than the blood at the time point studied, Figure 2B. Also in the kidney 40% of the drug is present as metabolites, with the concentration of the hydroxylated aromatic quinoline and the O-demethylated quinoline compounds being higher than in the blood, Figure 2B. In contrast, within the cancer > 80% of the total concentration of drug is present as parent tasquinimod, Figure 2B. Only the O-demethylated quinoline compound is present at a higher concentration in the cancer than blood, Figure 2B. The plasma concentration of total metabolites is < 10% at 4 hours, Figure 2B, and 24 hours post oral dosing with 5 mg/kg, Figure 2A.
Male nude mice bearing 200-300mm^3 CWR-22Rv1 cancers were given ^14C-labeled tasquinimod at a dose of 5 mg/kg via oral gavage. At times ranging from 30 min to 24 hour, groups of 4-6 mice were anaesthetized with ketamine and 1 ml of heparinized blood collected by cardiac puncture, followed by subsequent cardiac perfusion of saline to remove blood associated drug. An aliquot of liver, kidney, and cancer was removed, weighed and then homogenized. The radioactivity in 10 μL aliquots of tissue homogenates and blood plasma was determined using a liquid scintillation counter and used to calculate the total amount of tasquinimod plus its metabolites per gram of tissue or per ml of blood. The remaining sample volume was deproteinated with acetonitrile and the radioactivity of an aliquot of the supernatant determined and the remaining supernatant lyophilized, resuspended initially with 0.1mL dimethyl sulfoxide and diluted by the addition of 0.9mL deionized water prior to injection into the HPLC. The HPLC system consisted of Waters pumps using a Waters gradient controller to deliver mobile phase at a flow rate of 1mL per minute using a Supelcosil ABZ+ C18 column that is 150mm long by 4.6mm diameter and has 5μm particle size. The metabolites were separated using a linear gradient in which the starting mobile phase was 35% acetonitrile: 65% water: 0.1% Trifluoroacetic acid (TFA) increasing to 50% acetonitrile: 50% water: 0.1%TFA over 25 minutes, and then increased rapidly to 98% acetonitrile: 2% water: 0.1%TFA and held until 33 minutes before it is returned to the initial conditions for the next run. Fractions were collected and the radioactivity determined by scintillation counting. As controls, the individual elution time of non-radiolabeled standard solutions of the various tasquinimod metabolites was determined using UV absorption at 215nm. The results were expressed as concentration based upon tissue volume, assuming 1gram wet weight equals 1ml, or normalized to tissue vascular volume.

[2] = tested on: human umbilical vein endothelial cells (HUVECs); assay: 3D in vitro endothelial sprouting and tube formation assay; assay type: cell-based; conditions: for IC50: Homo sapiens, HUVEC, 3D-HUVEC sprouting assay, read-out: IC50 (concentration of drug which inhibits by 50% the endothelial sprouting)
Source text: A three-dimensional (3D) in vitro endothelial sprouting and tube formation assay was utilized to define the anti-angiogenic potency of tasquinimod vs. these metabolites. In this 3D assay, human umbilical endothelial cells (i.e., HUVECs) are initially grown on microcarrier beads and the cell coated beads embedded in fibrin gels with media conditioned by normal human lung fibroblasts. Under these 3D-conditions, endothelial cells “sprout” producing 3D neovessel tubes with patent lumen within one week, Figure 4A - left panel. When tasquinimod is added at the initiation to these 3D-cultures, sprouting of the endothelial cells is inhibited, Figure 4B-right panel, with the potency for such inhibition, expressed as an IC50 value (i.e., the concentration of drug which inhibits by 50% the endothelial sprouting) of 0.5 μM, Figure 4C. […] Using this 3D-HUVEC assay, the potency (i.e., expressed as IC50) of tasquinimod metabolites to inhibit endothelial sprouting was compared to tasquinimod. […] To further confirm that tasquinimod itself and not the carboxamide-N-demethylated metabolite is the active drug, the response to ketoconazole alone and in combination with tasquinimod was tested in the 3D-endothelial sprouting assay.
The 3-dimensional (3D) in vitro angiogenic sprouting and tube formation assay was used as described previously. This 3D-endothelial sprouting assay was conducted using a minimum of 5 replicate wells per drug dose per experiment, repeated 3 independent times using human umbilical vein endothelial cells (HUVECs; Lonza Walkersville, Inc.) with modification that 20 μL of 10X concentrated Dulbecco's Modified Eagle's Media/10%FCS media conditioned by confluent human primary lung fibroblasts (Lonza) diluted to 200 μL of growth factor supplemented EGM-2 media (Lonza) was used instead of fibroblast co-culture.

CYP-3A [3] = tested on: CYP-3A; set-up: method as in PMID 15764719; conditions: read-out: IC50 for inhibition of CYP-3A; cited from earlier work
CYP-3A [4] = tested on: CYP-3A; set-up: method as in PMID 21391977; conditions: oral dose of 25mg/kg/day; cited from earlier work
[5] = tested on: CWR-22RH human prostate cancer; assay: Tumor take of CWR-22RH xenografts in castrated nude mice; assay type: in vivo, mouse
Experimental: To confirm this conclusion, castrated male nude mice were xenografted with the castrate resistant CWR-22RH human prostate cancer tissue and the animals immediately randomized into groups (n=10) which were: 1) left untreated as controls; 2) given daily oral treatment with tasquinimod alone via the drinking water (10mg/kg/day); 3) given oral ketoconazole alone via oral gavage at a daily dose which inhibits cytochrome P450 3A4 (i.e., 25 mg/kg/day); or 4) given a combination of the two drugs. […] These combined in vitro/in vivo results document tasquinimod, not one of its metabolites, is the active drug.
(§1) The source, history, and characteristics of the human prostate cancer cell lines (i.e., LNCaP, LAPC4, and CWR-22Rv1 and the human umbilical vascular endothelial cells (HUVEC) used, as well as cell culture conditions for their in vitro maintenance and the in vivo protocol for their xenografting into immune-deficient nude male mice are as described previously. The source, history, and characteristics of the TRAMP-C2 mouse prostate cancer line, as well as cell culture conditions for their in vitro maintenance and the in vivo protocol for their growth in intact adult male syngeneic C57Bl/6J are as described previously. All lines were mycoplasma negative using the MycoSensor PCR Assay kit (Agilent Technologies) and genetically authenticated within the last 6 months using short tandem repeat profiling conducted by the Johns Hopkins Genetic Resource Core Facility. The source, history, and characteristics of the CWR-RH human prostate cancer xenograft are as described previously. In vitro growth curves were determined as described. Animal studies were conducted according to animal protocol MO09M434 approved by Johns Hopkins Animal Care and Use Committee. Daily drug dosing via oral gavage, the drinking water, or subcutaneous injection, as well as tumor volume measurements and determination of the blood vessel density within cancers, were as described previously. These experiments were repeated at 3 independent times for each xenograft.

Water solubility = assay type: physicochemical
[6] = tested on: CWR-22Rv1 human prostate cancer xenografts; assay: Dose-response growth inhibition of established CWR-22Rv1 xenografts (subcutaneous daily injection); assay type: in vivo, mouse; conditions: 20 days
Experimental: To confirm these in vitro results, mice were inoculated subcutaneously (SQ) with CWR-22Rv1 cells and remained untreated until the tumors grew to ~ 200 mm3 (i.e., ~ 200 mgs) and then they were randomly assigned to groups (n=10) which were injected SQ daily with 100 μl of propylene glycol vehicle only vs. vehicle delivering 0.1 or 1 mg/kg/day of either tasquinimod or its carboxamide-N-demethylated metabolite. Propylene glycol was used as vehicle due to the low water solubility of the carboxamide-N-demethylated metabolite. After 20 days of continuous treatment, the experiment was terminated and the total weight of each cancer determined and the results expressed both as average tumor weight in grams and as the ratio of the weight of the cancers in the treated vs. vehicle control animals (i.e., T/C ratio), Figure 5A.
as §1

[7] = CWR-22Rv1 cancer tissue, CWR-22Rv1 cancer, 1gm tissue = 1ml, read-out: concentration in CWR-22Rv1 cancer
[8] = kidney, 1gm tissue = 1ml, read-out: concentration in kidney
[9] = liver, 1gm tissue = 1ml, read-out: concentration in liver
[10] = plasma, read-out: concentration in plasma

concentration of metabolite formed (HUVEC cells) | fraction of tasquinimod converted to the metabolite (HUVEC cells) | percentage of total drug in CWR-22Rv1 cancer ([1]; CWR-22Rv1 cancer) | percentage of total drug in kidney ([1]; kidney) | percentage of total drug in liver ([1]; liver) | concentration at 4 h [1, 7] | concentration at 4 h [1, 8] | concentration at 4 h [1, 9] | concentration at 4 h [1, 10] | percentage of total drug in plasma ([1]; plasma) | Structure (SMILES) | IC50 [2] | further results
< 20 nM | < 2% | < 1% | < 1% | 2+/-1% | < 30 nM | < 30 nM | 260 nM | < 60 nM | < 1% | COc1cccc2[nH]c(=O)c(C(=O)N(C)c3ccc(C(F)(F)F)cc3)c(O)c12 [Quinoline-N-demethylate] | 20 µM | –
100 nM | 10% | 17+/- 4% | 36+/-4% | 62+/-7% | 460 nM | 1400 nM | 8100 nM | 300 nM | 5+/-1% | CN(C(=O)c1c(O)c2c(O)cccc2n(C)c1=O)c1ccc(C(F)(F)F)cc1 [Quinoline-O-demethylate] | 30 µM | –
– | – | – | – | – | – | – | – | – | – | CC(=O)N1CCN(c2ccc(OCC3COC(Cn4ccnc4)(c4ccc(Cl)cc4Cl)O3)cc2)CC1 (stereo not drawn) [ketoconazole] | – | IC50 (CYP-3A [3]): […]; inhibition of CYP-3A (CYP-3A [4]): > 90%; effect of ketoconazole on anti-cancer efficacy of tasquinimod ([5]; ketoconazole 25 mg/kg/day combined with tasquinimod 10mg/kg/day): does not affect; also recorded: does not inhibit the therapeutic efficacy of tasquinimod; also recorded: does not suppress; tumor take and growth ([5]; ketoconazole alone 25 mg/kg/day via oral gavage from inoculation): does not inhibit either the take or growth; effect of ketoconazole on tasquinimod's inhibition of 3D HUVEC sprouting ([2]; 10 μM ketoconazole simultaneously present with 1 μM tasquinimod): does not affect; also recorded: does not prevent inhibition; also recorded: does not suppress; inhibition of endothelial sprouting ([2]; ketoconazole alone, 10 μM): did not inhibit
< 20 nM | < 2% | < 1% | < 1% | < 1% | < 30 nM | < 30 nM | < 130 nM | < 60 nM | < 1% | COc1cccc2c1c(O)c(C(=O)Nc1ccc(C(F)(F)F)cc1)c(=O)n2C [Carboxamide-N-demethylate] | 0.25 µM | water solubility (Water solubility): low; Avg Tumor Weight ([6]; 0.1 mg/kg/day SQ): 0.891 ± 0.263 g; T/C Ratio ([6]; 0.1 mg/kg/day SQ): 0.512; Avg Tumor Weight ([6]; 1 mg/kg/day SQ): 0.724 ± 0.223 g; T/C Ratio ([6]; 1 mg/kg/day SQ): 0.415; fold more potent than tasquinimod (lower IC50) in inhibiting endothelial sprouting ([2]; relative to tasquinimod): 2 fold
